According to publication PMC1361622 (2006):

Test system: construct 1 (consensus-type glmS ribozyme, A6 and A58) (RNA, ribozyme) GGUAAAUUAUAAAAGCGCCAGAACUACAGAAAUGUAGUUGACGAGGAGGAGGUUUAUCGAAUUUUCGGCGGAUGCCUCC
Test: half-maximal kobs of ligand-dependent self-cleavage
Details: 20 mM Mg2+; 50 mM Tris-HCl pH 7.5, 23 °C; GlcN6P varied

apparent Kd: ~ 200 µM
Structure (SMILES): N[C@H]1C(O)O[C@H](COP(=O)(O)O)[C@@H](O)[C@@H]1O (stereo partly shown)
